Source: patent US20240237643A1, “COMPOSITIONS WITH VIRUCIDAL AND/OR ANTIVIRAL ACTIVITY” (priority 2020, published 2024)

Tests used:
Experiment in all cases: Virucidal activity, quantitative suspension test DIN EN 14476
Format in all cases: cell-based
Coronavirus (MHV-3) = test system: Coronavirus (MHV-3)
Method: Testing was conducted over a period of 1 to 10 minutes. Activity against the following viruses was determined: • Coronavirus (MHV-3) • Influenza virus (H1N1) • Herpes simplex virus (HV) • Human respiratory syncytial virus (HRSV)
In this context (+) means that more than 99.99% of all viruses were inactivated; this is equivalent to a reduction factor of 10,000.

[1] = test system: Human respiratory syncytial virus (HRSV)
Influenza virus (H1N1) = test system: Influenza virus (H1N1)
[2] = test system: Herpes simplex virus (HV)
[3] = 33 wt.-percent in water, 10 min
[4] = 0.1 wt.-percent in water, 1 min
[5] = 0.1 wt.-percent in water, 10 min
[6] = 10 wt.-percent in water, 10 min

In the case of CCCCCCC(O)CO (stereo not shown) [1,2-octanediol], the “Virucidal activity MHV-3” value (Coronavirus (MHV-3); [3]) was “(+) ((+) means that more than 99.99% of all viruses were inactivated; this is equivalent to a reduction factor of 10,000)”, the “Virucidal activity HRSV” value [1, 3] was “(+) ((+) means that more than 99.99% of all viruses were inactivated; this is equivalent to a reduction factor of 10,000)” and the “Virucidal activity H1N1” value (Influenza virus (H1N1); [3]) was “(+) ((+) means that more than 99.99% of all viruses were inactivated; this is equivalent to a reduction factor of 10,000)”. The “Virucidal activity HV” value [2, 3] was “(+) ((+) means that more than 99.99% of all viruses were inactivated; this is equivalent to a reduction factor of 10,000)”.
With CCCC(O)CO (stereo not shown) [1,2-pentanediol] the “Virucidal activity MHV-3” value (Coronavirus (MHV-3); 33 wt.-percent in water, 1 min) was “(+) ((+) means that more than 99.99% of all viruses were inactivated; this is equivalent to a reduction factor of 10,000)”, the “Virucidal activity MHV-3” value (Coronavirus (MHV-3); 33 wt.-percent in water, 5 min) was “(+) ((+) means that more than 99.99% of all viruses were inactivated; this is equivalent to a reduction factor of 10,000)” and the “Virucidal activity MHV-3” value (Coronavirus (MHV-3); [3]) was “(+) ((+) means that more than 99.99% of all viruses were inactivated; this is equivalent to a reduction factor of 10,000)”. The “Virucidal activity HRSV” value ([1]; 33 wt.-percent in water, 1 min) was “(+) ((+) means that more than 99.99% of all viruses were inactivated; this is equivalent to a reduction factor of 10,000)”, the “Virucidal activity HRSV” value ([1]; 33 wt.-percent in water, 5 min) was “(+) ((+) means that more than 99.99% of all viruses were inactivated; this is equivalent to a reduction factor of 10,000)” and the “Virucidal activity HRSV” value [1, 3] was “(+) ((+) means that more than 99.99% of all viruses were inactivated; this is equivalent to a reduction factor of 10,000)”. For the same compound, the “Virucidal activity H1N1” value (Influenza virus (H1N1); 33 wt.-percent in water, 1 min) was “(+) ((+) means that more than 99.99% of all viruses were inactivated; this is equivalent to a reduction factor of 10,000)”, the “Virucidal activity H1N1” value (Influenza virus (H1N1); 33 wt.-percent in water, 5 min) was “(+) ((+) means that more than 99.99% of all viruses were inactivated; this is equivalent to a reduction factor of 10,000)” and the “Virucidal activity H1N1” value (Influenza virus (H1N1); [3]) was “(+) ((+) means that more than 99.99% of all viruses were inactivated; this is equivalent to a reduction factor of 10,000)”. The “Virucidal activity HV” value ([2]; 33 wt.-percent in water, 1 min) was “(+) ((+) means that more than 99.99% of all viruses were inactivated; this is equivalent to a reduction factor of 10,000)”, the “Virucidal activity HV” value ([2]; 33 wt.-percent in water, 5 min) was “(+) ((+) means that more than 99.99% of all viruses were inactivated; this is equivalent to a reduction factor of 10,000)” and the “Virucidal activity HV” value [2, 3] was “(+) ((+) means that more than 99.99% of all viruses were inactivated; this is equivalent to a reduction factor of 10,000)”.
For Cc1cc(O)ccc1C(C)C [4-isopropyl-3-methylphenol], the “Virucidal activity MHV-3” value (Coronavirus (MHV-3); [4]) was “(+) ((+) means that more than 99.99% of all viruses were inactivated; this is equivalent to a reduction factor of 10,000)”, the “Virucidal activity MHV-3” value (Coronavirus (MHV-3); [5]) was “(+) ((+) means that more than 99.99% of all viruses were inactivated; this is equivalent to a reduction factor of 10,000)” and the “Virucidal activity MHV-3” value (Coronavirus (MHV-3); 1 wt.-percent in water, 1 min) was “(+) ((+) means that more than 99.99% of all viruses were inactivated; this is equivalent to a reduction factor of 10,000)”. The “Virucidal activity MHV-3” value (Coronavirus (MHV-3); 1 wt.-percent in water, 10 min) was “(+) ((+) means that more than 99.99% of all viruses were inactivated; this is equivalent to a reduction factor of 10,000)”, the “Virucidal activity MHV-3” value (Coronavirus (MHV-3); 10 wt.-percent in water, 1 min) was “(+) ((+) means that more than 99.99% of all viruses were inactivated; this is equivalent to a reduction factor of 10,000)” and the “Virucidal activity MHV-3” value (Coronavirus (MHV-3); [6]) was “(+) ((+) means that more than 99.99% of all viruses were inactivated; this is equivalent to a reduction factor of 10,000)”. For the same compound, the “Virucidal activity HRSV” value [1, 4] was “(+) ((+) means that more than 99.99% of all viruses were inactivated; this is equivalent to a reduction factor of 10,000)”, the “Virucidal activity HRSV” value [1, 5] was “(+) ((+) means that more than 99.99% of all viruses were inactivated; this is equivalent to a reduction factor of 10,000)” and the “Virucidal activity HRSV” value ([1]; 1 wt.-percent in water, 1 min) was “(+) ((+) means that more than 99.99% of all viruses were inactivated; this is equivalent to a reduction factor of 10,000)”. The “Virucidal activity HRSV” value ([1]; 1 wt.-percent in water, 10 min) was “(+) ((+) means that more than 99.99% of all viruses were inactivated; this is equivalent to a reduction factor of 10,000)”, the “Virucidal activity HRSV” value ([1]; 10 wt.-percent in water, 1 min) was “(+) ((+) means that more than 99.99% of all viruses were inactivated; this is equivalent to a reduction factor of 10,000)” and the “Virucidal activity HRSV” value [1, 6] was “(+) ((+) means that more than 99.99% of all viruses were inactivated; this is equivalent to a reduction factor of 10,000)”. The “Virucidal activity H1N1” value (Influenza virus (H1N1); [4]) was “(+) ((+) means that more than 99.99% of all viruses were inactivated; this is equivalent to a reduction factor of 10,000)”, the “Virucidal activity H1N1” value (Influenza virus (H1N1); [5]) was “(+) ((+) means that more than 99.99% of all viruses were inactivated; this is equivalent to a reduction factor of 10,000)” and the “Virucidal activity H1N1” value (Influenza virus (H1N1); 1 wt.-percent in water, 1 min) was “(+) ((+) means that more than 99.99% of all viruses were inactivated; this is equivalent to a reduction factor of 10,000)”. For the same compound, the “Virucidal activity H1N1” value (Influenza virus (H1N1); 1 wt.-percent in water, 10 min) was “(+) ((+) means that more than 99.99% of all viruses were inactivated; this is equivalent to a reduction factor of 10,000)”, the “Virucidal activity H1N1” value (Influenza virus (H1N1); 10 wt.-percent in water, 1 min) was “(+) ((+) means that more than 99.99% of all viruses were inactivated; this is equivalent to a reduction factor of 10,000)” and the “Virucidal activity H1N1” value (Influenza virus (H1N1); [6]) was “(+) ((+) means that more than 99.99% of all viruses were inactivated; this is equivalent to a reduction factor of 10,000)”. The “Virucidal activity HV” value [2, 4] was “(+) ((+) means that more than 99.99% of all viruses were inactivated; this is equivalent to a reduction factor of 10,000)”, the “Virucidal activity HV” value [2, 5] was “(+) ((+) means that more than 99.99% of all viruses were inactivated; this is equivalent to a reduction factor of 10,000)” and the “Virucidal activity HV” value ([2]; 1 wt.-percent in water, 1 min) was “(+) ((+) means that more than 99.99% of all viruses were inactivated; this is equivalent to a reduction factor of 10,000)”. The “Virucidal activity HV” value ([2]; 1 wt.-percent in water, 10 min) was “(+) ((+) means that more than 99.99% of all viruses were inactivated; this is equivalent to a reduction factor of 10,000)”, the “Virucidal activity HV” value ([2]; 10 wt.-percent in water, 1 min) was “(+) ((+) means that more than 99.99% of all viruses were inactivated; this is equivalent to a reduction factor of 10,000)” and the “Virucidal activity HV” value [2, 6] was “(+) ((+) means that more than 99.99% of all viruses were inactivated; this is equivalent to a reduction factor of 10,000)”.
